In ChEMBL document CHEMBL1159082, “Phenylacetic acid regioisomers possessing a N-difluoromethyl-1,2-dihydropyrid-2-one pharmacophore: evaluation as dual inhibitors of cyclooxygenases and 5-lipoxygenase with anti-inflammatory activity” (Bioorg Med Chem Lett, 2010):

Assays:
Rattus norvegicus [1] = experiment: Antiinflammatory activity against carrageenan-induced paw edema in rat at 150 mg/kg, ip; type: functional; conditions: route intraperitoneal
[2] = molecular target: T1, Prostaglandin G/H synthase 2 (Homo sapiens, UniProt P35354); experiment: Inhibition of human recombinant COX2 by enzyme immuno assay
T1 sequence (P35354 whole entry): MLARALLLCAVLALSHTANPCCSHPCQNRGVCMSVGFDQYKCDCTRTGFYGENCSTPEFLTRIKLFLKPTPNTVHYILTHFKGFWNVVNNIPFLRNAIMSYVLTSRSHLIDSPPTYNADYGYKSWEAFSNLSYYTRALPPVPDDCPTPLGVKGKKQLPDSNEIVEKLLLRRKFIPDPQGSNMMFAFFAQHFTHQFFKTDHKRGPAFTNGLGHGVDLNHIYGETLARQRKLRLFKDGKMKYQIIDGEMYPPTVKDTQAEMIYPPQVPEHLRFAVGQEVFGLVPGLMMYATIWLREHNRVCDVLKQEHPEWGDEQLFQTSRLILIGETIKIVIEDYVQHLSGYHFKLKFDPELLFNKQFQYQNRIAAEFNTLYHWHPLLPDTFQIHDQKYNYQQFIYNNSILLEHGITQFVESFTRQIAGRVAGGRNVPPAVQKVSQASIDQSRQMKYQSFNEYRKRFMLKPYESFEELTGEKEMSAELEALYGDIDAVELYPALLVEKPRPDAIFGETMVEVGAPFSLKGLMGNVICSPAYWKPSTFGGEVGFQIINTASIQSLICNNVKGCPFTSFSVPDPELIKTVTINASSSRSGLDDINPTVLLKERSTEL

Rattus norvegicus [3] = experiment: Antiinflammatory activity against carrageenan-induced paw edema in rat at 150 mg/kg, po relative to ibuprofen; type: functional
[4] = Inhibition of potato 5-Lipoxygenase by enzyme immuno assay; design: species or system Solanum tuberosum
[5] = molecular target: T2, Prostaglandin G/H synthase 1 (Ovis aries, UniProt P05979)
T2 sequence (P05979 whole entry): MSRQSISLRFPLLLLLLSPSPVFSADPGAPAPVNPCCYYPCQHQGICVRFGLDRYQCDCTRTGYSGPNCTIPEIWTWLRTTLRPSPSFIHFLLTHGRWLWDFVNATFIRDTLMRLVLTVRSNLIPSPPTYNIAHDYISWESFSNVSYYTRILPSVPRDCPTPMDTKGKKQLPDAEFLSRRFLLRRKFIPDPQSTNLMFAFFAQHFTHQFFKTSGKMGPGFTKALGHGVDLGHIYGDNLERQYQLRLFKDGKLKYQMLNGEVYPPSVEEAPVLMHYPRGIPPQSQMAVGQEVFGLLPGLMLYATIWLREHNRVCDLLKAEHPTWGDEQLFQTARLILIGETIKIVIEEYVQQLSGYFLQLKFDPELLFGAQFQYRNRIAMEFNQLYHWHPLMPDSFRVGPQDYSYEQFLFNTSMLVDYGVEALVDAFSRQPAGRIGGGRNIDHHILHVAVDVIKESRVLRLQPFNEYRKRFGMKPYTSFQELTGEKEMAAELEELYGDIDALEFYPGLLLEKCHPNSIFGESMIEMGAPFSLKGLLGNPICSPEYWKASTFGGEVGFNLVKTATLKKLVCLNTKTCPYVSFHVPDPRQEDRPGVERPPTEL
Description: Inhibition of ovine COX1 by enzyme immuno assay

Rattus norvegicus [6] = experiment: Antiinflammatory activity against carrageenan-induced paw edema in rat at 100 mg/kg, po; type: functional
Rattus norvegicus [7] = experiment: Antiinflammatory activity against carrageenan-induced paw edema in po dosed rat; type: functional
Rattus norvegicus [8] = experiment: Antiinflammatory activity against carrageenan-induced paw edema in rat at 30 mg/kg, po; type: functional

SMILES | IC50 [2] [nM] | IC50 [4] [nM] | IC50 [5] [nM] | also measured
O=C(O)Cc1ccccc1-c1ccn(C(F)F)c(=O)c1 | 860 | 200 | 5500 | inhibition in vivo at 150 mg/kg (Rattus norvegicus [1]): 18.5%; inhibition in vivo at 150 mg/kg (Rattus norvegicus [3]): 19.9%
O=C(O)Cc1cccc(-c2ccn(C(F)F)c(=O)c2)c1 | 11100 | 370 | > 100000 | inhibition in vivo at 100 mg/kg (Rattus norvegicus [6]): 11.2%
CC(C)Cc1ccc(C(C)C(=O)O)cc1 (configuration not stated) [IBUPROFEN] | – | – | – | ED50 (Rattus norvegicus [7]): 67.4 mg/kg
CC(C(=O)O)c1ccc(-c2ccn(C(F)F)c(=O)c2)cc1 (configuration not stated) | 2400 | 3000 | 15300 | –
CC(C(=O)O)c1ccccc1-c1ccn(C(F)F)c(=O)c1 (configuration not stated) | 2600 | 2000 | > 100000 | –
O=C(O)/C=C/c1ccc(O)c(O)c1 [CAFFEIC ACID] | – | 4000 | – | inhibition in vivo at 30 mg/kg (Rattus norvegicus [8]): 8.2%
O=C(O)Cc1ccc(-c2ccn(C(F)F)c(=O)c2)cc1 | 890 | 3470 | 9600 | –
CC(Cc1ccc(O)c(O)c1)C(C)Cc1ccc(O)c(O)c1 (configuration not stated) [NORDIHYDROGUAIARETIC ACID] | – | – | – | inhibition in vivo at 30 mg/kg (Rattus norvegicus [8]): 15.1%
